These results are taken from patent US12129246B1, “Hydroquinazoline derivatives for the treatment of a disease or disorder” (Novartis AG, priority 2023, dated 2024).

For the assay, the target named is T1, human NPR1 (Homo sapiens, UniProt P16066).
T1 construct: host or cells: CHO-K1
T1 sequence (P16066 33-1061): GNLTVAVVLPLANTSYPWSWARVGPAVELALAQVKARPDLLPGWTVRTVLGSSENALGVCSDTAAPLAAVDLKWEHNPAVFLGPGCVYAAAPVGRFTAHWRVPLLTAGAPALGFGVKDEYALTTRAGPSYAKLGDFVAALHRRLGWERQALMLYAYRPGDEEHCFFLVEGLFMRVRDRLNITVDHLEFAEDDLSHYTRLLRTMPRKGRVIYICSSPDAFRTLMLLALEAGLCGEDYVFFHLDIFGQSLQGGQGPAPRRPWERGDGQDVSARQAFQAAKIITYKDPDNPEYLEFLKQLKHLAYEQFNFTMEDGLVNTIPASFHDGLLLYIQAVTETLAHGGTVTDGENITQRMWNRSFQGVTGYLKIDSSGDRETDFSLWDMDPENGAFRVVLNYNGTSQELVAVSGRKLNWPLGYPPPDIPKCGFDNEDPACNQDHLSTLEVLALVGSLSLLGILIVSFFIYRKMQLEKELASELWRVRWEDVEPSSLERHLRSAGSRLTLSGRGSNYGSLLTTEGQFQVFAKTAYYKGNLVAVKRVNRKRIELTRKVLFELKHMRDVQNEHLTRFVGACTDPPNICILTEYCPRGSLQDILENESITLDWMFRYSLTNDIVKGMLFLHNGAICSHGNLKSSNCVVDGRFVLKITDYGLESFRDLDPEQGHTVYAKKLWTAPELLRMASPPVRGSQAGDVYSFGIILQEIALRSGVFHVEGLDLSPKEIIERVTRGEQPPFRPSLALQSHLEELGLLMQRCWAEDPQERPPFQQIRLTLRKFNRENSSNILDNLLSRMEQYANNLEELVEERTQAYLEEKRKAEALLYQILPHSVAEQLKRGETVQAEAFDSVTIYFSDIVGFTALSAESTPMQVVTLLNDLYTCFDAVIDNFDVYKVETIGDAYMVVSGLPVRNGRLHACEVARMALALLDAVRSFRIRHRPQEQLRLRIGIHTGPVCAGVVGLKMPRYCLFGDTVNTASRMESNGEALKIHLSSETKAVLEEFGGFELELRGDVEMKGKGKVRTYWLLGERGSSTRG
Description: Cellular cGMP production assay, human NPR1 expressing CHO-K1 cells (CisBio HTRF). The class given is cell-based. As to conditions: for AC50: cGMP production, 30 min at 37° C., 12-point dose-response from 30 μM; for Human NPR1 Amax (% of ANP): maximum cGMP production as percentage of the maximum cGMP produced with ANP. The method, then: Cellular cGMP is a major second messenger that mediates cell activities and is synthesized by activated NPR1 triggered by binding of the natural ligand ANP. […] The assay was performed according to manufacturer's instructions with minor deviations. […] All compound stocks were diluted in PBS+0.1% BSA at 2-fold the final assay concentration. After addition of 10 μL/well of assay buffer (PBS+0.1% BSA+1 mM IBMX) and 10 μL/well of the compounds in different concentrations (12-point dose-response with 3-fold dilutions from a top concentration of 30 μM), the plate was incubated for 30 min at 37° C. to allow for cGMP production. In parallel, a standard curve using a calibrator (contained in the kit) was generated. The cells were lysed and a mix of cGMP-d2 and anti-cGMP-cryptate was added and incubated for 1 h at room temperature. The readout was performed using an Envision plate reader (PerkinElmer) with an excitation wavelength of 317 nm and an emission wavelength of 665 nm. cGMP concentration (Delta F [° %]) was calculated according to the following formulae: […]

Consider `CC[C@H]([C@H]1CC[C@H](C(=O)O)CC1)N(C)c1nc2c(c(N[C@@H](CN3CCC[C@H](C)C3)c3cn(C)nc3F)n1)C[C@H](c1ccccc1)CC2` (stereo in doubt) [Compound 185, (1R,4r)-4-((R)-1-(((R)-4-(((S)-1-(3-fluoro-1-methyl-1H-pyrazol-4-yl)-2-((S)-3-methylpiperidin-1-yl)ethyl)amino)-6-phenyl-5,6,7,8-tetrahydroquinazolin-2-yl)(methyl)amino)propyl)cyclohexane-1-carboxylic acid], for which the activity was half-maximal at 201 nM (AC50) and the “Human NPR1 Amax (% of ANP)” value is given as 98.01 % of ANP.

Regarding `CC[C@@H](Nc1nc2c(c(N[C@@H](CN3CCCC(CF)C3)c3cnn(C)c3)n1)C[C@H](c1cccc(F)c1)CC2)[C@H]1CC[C@H](C(=O)O)CC1` (stereo partly drawn) [Compound 175, (1R,4r)-4-((1R)-1-(((6R)-4-(((1R)-2-(3-(fluoromethyl)piperidin-1-yl)-1-(1-methyl-1H-pyrazol-4-yl)ethyl)amino)-6-(3-fluorophenyl)-5,6,7,8-tetrahydroquinazolin-2-yl)amino)propyl)cyclohexane-1-carboxylic acid], half-maximal activity (AC50) was put at 89 nM and the “Human NPR1 Amax (% of ANP)” value is on record as 109.91 % of ANP.

Consider `CC[C@H]([C@H]1CC[C@H](C(=O)O)CC1)N(C)c1nc2c(c(N[C@@H](CN3CCC[C@H]4C[C@H]43)c3cnn(C)c3)n1)C[C@H](c1ccccc1)CC2` [Compound 176, (1R,4r)-4-((R)-1-(((R)-4-(((R)-2-((1R,6S)-2-azabicyclo[4.1.0]heptan-2-yl)-1-(1-methyl-1H-pyrazol-4-yl)ethyl)amino)-6-phenyl-5,6,7,8-tetrahydroquinazolin-2-yl)(methyl)amino)propyl)cyclohexane-1-carboxylic acid], for which the AC50 worked out at 359 nM and the “Human NPR1 Amax (% of ANP)” value is listed as 107.70 % of ANP.

Take `CC[C@H]([C@H]1CC[C@H](C(=O)O)CC1)N(C)c1nc2c(c(N[C@@H](CN3CCC[C@@H]4C[C@@H]43)c3cnn(C)c3)n1)C[C@H](c1ccccc1)CC2` [Compound 177, (1R,4r)-4-((R)-1-(((R)-4-(((R)-2-((1S,6R)-2-azabicyclo[4.1.0]heptan-2-yl)-1-(1-methyl-1H-pyrazol-4-yl)ethyl)amino)-6-phenyl-5,6,7,8-tetrahydroquinazolin-2-yl)(methyl)amino)propyl)cyclohexane-1-carboxylic acid]: the activity was half-maximal at 488 nM (AC50) and the “Human NPR1 Amax (% of ANP)” value is given as 107.75 % of ANP.

`CC[C@H]([C@H]1CC[C@H](C(=O)O)CC1)N(C)c1nc2c(c(N[C@@H](CN3CCC[C@](O)(CC)C3)c3cnn(C)c3)n1)C[C@H](c1ccccc1)CC2` [Compound 178, (1R,4r)-4-((R)-1-(((R)-4-(((R)-2-((R)-3-ethyl-3-hydroxypiperidin-1-yl)-1-(1-methyl-1H-pyrazol-4-yl)ethyl)amino)-6-phenyl-5,6,7,8-tetrahydroquinazolin-2-yl)(methyl)amino)propyl)cyclohexane-1-carboxylic acid]: the AC50 is 362 nM and the “Human NPR1 Amax (% of ANP)” value is 112.78 % of ANP.

Regarding `CC[C@H]([C@H]1CC[C@H](C(=O)O)CC1)N(C)c1nc2c(c(N[C@@H](CN3CC[C@@H](O)[C@H](C)C3)c3cnn(C)c3)n1)C[C@H](c1ccccc1)CC2` [Compound 179, (1R,4r)-4-((R)-1-(((R)-4-(((R)-2-((3R,4R)-4-hydroxy-3-methylpiperidin-1-yl)-1-(1-methyl-1H-pyrazol-4-yl)ethyl)amino)-6-phenyl-5,6,7,8-tetrahydroquinazolin-2-yl)(methyl)amino)propyl)cyclohexane-1-carboxylic acid], the AC50 stood at 2710 nM and the “Human NPR1 Amax (% of ANP)” value was 97.72 % of ANP.

As for `CC[C@H]([C@H]1CC[C@H](C(=O)O)CC1)N(C)c1nc2c(c(N[C@@H](CN3CCCC4(CC4)C3)c3cnn(C)c3)n1)C[C@H](c1ccccc1)CC2` [Compound 180, (1R,4r)-4-((R)-1-(methyl((R)-4-(((R)-1-(1-methyl-1H-pyrazol-4-yl)-2-(5-azaspiro[2.5]octan-5-yl)ethyl)amino)-6-phenyl-5,6,7,8-tetrahydroquinazolin-2-yl)amino)propyl)cyclohexane-1-carboxylic acid], the AC50 turned out to be 465 nM and the “Human NPR1 Amax (% of ANP)” value was 86.52 % of ANP.

Consider `CC[C@H]([C@H]1CC[C@H](C(=O)O)CC1)N(C)c1nc2c(c(N[C@@H](CN3CC[C@@H](OC)C3)c3cnn(C)c3)n1)C[C@H](c1ccccc1)CC2` [Compound 181, (1R,4r)-4-((R)-1-(((R)-4-(((R)-2-((R)-3-methoxypyrrolidin-1-yl)-1-(1-methyl-1H-pyrazol-4-yl)ethyl)amino)-6-phenyl-5,6,7,8-tetrahydroquinazolin-2-yl)(methyl)amino)propyl)cyclohexane-1-carboxylic acid], for which the half-maximal activity concentration (AC50) was determined as 1810 nM and the “Human NPR1 Amax (% of ANP)” value is reported as 101.57 % of ANP.

With `CC[C@H]([C@H]1CC[C@H](C(=O)O)CC1)N(C)c1nc2c(c(N[C@@H](CN3CCC[C@@](C)(O)C3)c3cnn(C)c3)n1)C[C@H](c1ccccc1)CC2` [Compound 182, (1R,4r)-4-((R)-1-(((R)-4-(((R)-2-((R)-3-hydroxy-3-methylpiperidin-1-yl)-1-(1-methyl-1H-pyrazol-4-yl)ethyl)amino)-6-phenyl-5,6,7,8-tetrahydroquinazolin-2-yl)(methyl)amino)propyl)cyclohexane-1-carboxylic acid], the AC50 came out at 250 nM and the “Human NPR1 Amax (% of ANP)” value was 110.06 % of ANP.

In the case of `CC[C@H]([C@H]1CC[C@H](C(=O)O)CC1)N(C)c1nc2c(c(N[C@@H](CN3C[C@H](C)C[C@@H](OC)C3)c3cnn(C)c3)n1)C[C@H](c1ccccc1)CC2` [Compound 183, (1R,4r)-4-((R)-1-(((R)-4-(((R)-2-((3R,5R)-3-methoxy-5-methylpiperidin-1-yl)-1-(1-methyl-1H-pyrazol-4-yl)ethyl)amino)-6-phenyl-5,6,7,8-tetrahydroquinazolin-2-yl)(methyl)amino)propyl)cyclohexane-1-carboxylic acid], the half-maximal activity concentration (AC50) was 380 nM and the “Human NPR1 Amax (% of ANP)” value is reported as 98.57 % of ANP.

Take `CC[C@H]([C@H]1CC[C@H](C(=O)O)CC1)N(C)c1nc2c(c(N[C@@H](CN3C[C@@H](C)C[C@H](OC)C3)c3cnn(C)c3)n1)C[C@H](c1ccccc1)CC2` [Compound 184, (1R,4r)-4-((R)-1-(((R)-4-(((R)-2-((3S,5S)-3-methoxy-5-methylpiperidin-1-yl)-1-(1-methyl-1H-pyrazol-4-yl)ethyl)amino)-6-phenyl-5,6,7,8-tetrahydroquinazolin-2-yl)(methyl)amino)propyl)cyclohexane-1-carboxylic acid]: the half-maximal activity concentration (AC50) was 940 nM and the “Human NPR1 Amax (% of ANP)” value is 103.67 % of ANP.

Turning to `CC[C@H]([C@H]1CC[C@H](C(=O)O)CC1)N(C)c1nc2c(c(N[C@@H](CN3CCC[C@](C)(O)C3)c3cnn(C)c3)n1)C[C@H](c1ccccc1)CC2` [Compound 186, (1R,4r)-4-((R)-1-(((R)-4-(((R)-2-((S)-3-hydroxy-3-methylpiperidin-1-yl)-1-(1-methyl-1H-pyrazol-4-yl)ethyl)amino)-6-phenyl-5,6,7,8-tetrahydroquinazolin-2-yl)(methyl)amino)propyl)cyclohexane-1-carboxylic acid], the AC50 is 406 nM and the “Human NPR1 Amax (% of ANP)” value was 110.66 % of ANP.
